From US20100016172A1, “Nucleic acid binding assay materials and methods” (priority 2007, published 2010)
Read-outs that look alike come from different tables or passages of the source.

Assays:
Consensus hairpin DNA = assay: Piper electrophoretic mobility shift assay; format: binding; details: 5 μM of PIPER
Description: (§1) The dotted line represents residues that are disordered in the crystal structure. The Exd residue R2C, is the unstructured amino acid to which the Cy3 dye is attached. […] The G-rich DNA in the absence of Exd has a band (bottom arrow), which is higher than the Consensus DNA shift with Exd and polyamide.
(§2) Piper Electrophoretic Mobility Shift Assay (FIG. 6D). The G-rich and Consensus hairpin DNA (same DNA as used in Hairpin Induction for EMSA) were incubated with increasing PIPER (Humphrey, W., Dalke, A. & Schulten, K. (1996) J. Mol. Graphics 14, 33-38) concentrations. PIPER final concentrations were […]. The gels were run and processed as above using an 8% acrylamide/3% glycerol gel with 0.5×TBE.

G-rich hairpin DNA [1] = assay: Piper electrophoretic mobility shift assay; format: binding; details: 5 μM of PIPER
Description: as §1, §2

DNA hairpin target array = assay: CSI array binding assay of Cy3-labeled Exd alone or with polyamide-peptide conjugates; details: for Motifs emerging from polyamide-Exd CSI data: in addition to G-stretches, Exd 20 nM, polyamide 50 nM
Description: Protein Binding: The microarrays were washed with 150 mM K-glutamate, 50 mM HEPES pH 7.5, 5% glycerol (reaction buffer), for 5 minutes. […] This solution was added to the hybridization chamber and incubated for 30 minutes. Subsequently, the microarrays were washed with reaction buffer and scanned.
To determine the sequence specificity of Exd, we labeled it with Cy3 at a unique cysteine residue on an unstructured portion of the protein (FIG. 6) (Passner, J. M., Ryoo, H. D., Shen, L., Mann, R. S. & Aggarwal, A. K. (1999) Nature 397, 714-719).
Array design for Hox/Exd Cooperative Binding Assay. The duplex DNA sequences are designed as self-complementary palindromes interrupted at the center by a TCCT sequence to facilitate the formation of DNA hairpins (FIG. 7). The 34 residue oligonucleotide is synthesized directly on the glass surface using a maskless array synthesizer (Singh-Gasson, S., Green, R. D., Yeu, Y., Nelson, C., Blattner, F., Sussman, M. R., Cerrina, F. (1999) Nat. Biotechnol. 17, 974-978) that can readily create up to 786,000 spatially resolved features. The unimolecular construction of duplex DNA allows the array to be reused several times without appreciable loss of information. After inducing hairpin formation, we find that greater than 95% of the oligonucleotides in the array form duplexes. In our hairpin design, we added three constant base pairs on either side of the 8 base pairs that were permuted (N′-8).
PA2 and PA3 (ImImPy*Py-γ-ImPyPyPy-β-Dp) are designed to target the sequence 5′-WGWCCW-3′. […] PA2 and PA3 differ solely by a single methylene in the linker connecting the Exd binding peptide to the polyamide (FIG. 8A) (Hauschild, K. E., Metzler, R. E., Arndt, H. D., Moretti, R., Raffaelle, M., Dervan, P. B., Ansari, A. Z. (2005) Proc. Natl. Acad. Sci. U.S.A. 102, 5008-5013). Since these polyamides are not fluorescently labeled, we detect cognate sites bound cooperatively by synthetic Hox mimics and Exd, as well as sites bound by Exd alone.
The raw array data for the above experiments were treated as described in Example 2. […] The Exd binding motif is 5′-NGAN-3′, which is consistent with the structural and genetic studies of Hox-Exd cognate sites (White, R. A., Aspland, S. E., Brookman, J. J., Clayton, L. & Sproat, G. (2000) Mech. Dev. 91, 217-226). In other words, the 5′-GA-3′ dinucleotide is the only required sequence determinant for Exd binding to DNA. Remarkably, the array identified the differences in the arrangement of polyamide and Exd binding sites due to ˜1.25 Å difference in the linker length between PA2 and PA3 (FIG. 8C). The other important result that emerges is that cooperative ternary assembly with Exd stabilizes binding of synthetic Hox mimics to truncated sites (5′-WGWC-3′). This is often seen in nature, where cooperative assembly of transcription factors utilizes sub-optimal binding sites to ensure that only a higher order complex can efficiently bind to a regulatory element (Thanos, D. & Maniatis, T. (1996) Methods Enzymol. 274, 162-173; Ptashne, M. & Gann, A. Genes and Signals. (2002) CSHL Press, New York).

[2] = system: 8-position sequence variation DNA hairpin target array; assay: CSI array binding assay of PA1 (Cy3 fluorescence intensity)
From the text: Hairpin Target CSI Microarray. Each hairpin target was composed of a central permuted 8 base pair region with X^1 with a three base pair CGC sequence anchor region flanking either end, with a complementary sequence on X^2. A fluorescently tagged nucleic acid binding assay molecule was applied to the microarray to generate the nucleic acid binding profile for that assay molecule. Analysis of the array signal intensity gives rise to a reference grid showing the binding intensity output for the array. High intensity features indicate tight binding of the assay molecule to that specific target sequence.
Binding Assay: Microarray slides were immersed in 1×PBS (Phosphate Buffered Saline) and placed in a 90° C. water bath for 30 minutes to induce hairpin formation of the oligonucleotides. Slides were then transferred to a tube of non-stringent wash buffer (Saline-Sodium Phosphate-EDTA Buffer, 0.01% v/v Tween-20) and scanned to check for low background (<200 intensity). Microarrays were scanned using a ScanArray 5000 and the image files extracted with GenePix Pro version 3.0.
Polyamide binding: Microarrays prepared as above were placed in the microarray hybridization chamber and washed twice with non-stringent wash buffer. Polyamide was diluted to 5 nM in Hyb buffer (100 mM MES, 1 M NaCl, 20 mM EDTA, 0.01% v/v Tween-20). Polyamide (5 nM) was then added to the hybridization chamber and incubated at room temperature overnight (16 hours). Finally, the microarrays were washed twice with non-stringent wash buffer and scanned.
The array-to-array variability was very low with an average correlation coefficient of 0.88 (FIG. 4A). […] The duplicate features within an array and replicate features between arrays were averaged together to give finalized intensities. These averaged intensities were then converted into Z-scores [z=signal−meant/standard deviation] to reflect the signal-to-noise ratio.
Data Processing: For each replicate, global mean normalization was used to ensure the mean intensity of each microarray was the same. Local mean normalization (Colantuoni, C., Henry, G., Zeger, S. & Pevsner, J. (2002) Bioinformatics 18, 1540-1541) was then used to ensure the intensity was evenly distributed throughout each sector of the microarray surface. Outliers between replicate features were detected using the Q-test at 90% confidence and filtered out. The replicates were then quantile normalized (Bolstad, B. M., Irizarry, R. A., Astrand, M. & Speed, T. P. (2003) Bioinformatics 19, 185-193) in order to account for any possible non-linearity between arrays. Duplicate features were then averaged together. The median of the averaged features was subtracted to account for background.
Z-scores were calculated as |signal−median|/standard deviation. Due to the right-handed tail effect, standard deviation of the background signal was based upon the standard deviation from the median of all signals less than the median. The relationship of Z-score to P-value can be found in Table 1, below. Motifs were then found by running several motif finding algorithms (Bailey, T. L. & Elkan, C. (1994) Proc. of the 2nd Intl. Conference on Intelligent Systems for Mol. Biol., AAAI Press, Menlo Park, Calif., 28-36; Hughes, J. D., Estep, P. W., Tavazoie, S. & Church, G. M. (2000) J. Mol. Biol. 296, 1205-1214; Liu, X. S., Brutlag, D. L. & Liu, J. S. (2002) Nat. Biotechnol. 20, 835-839) on sequences in the highest Z-score bin. Logos (Schneider, T. D. & Stephens, R. M. (1990) Nucl. Acids Res. 18, 6097-6100) of each motif were then created by using sequences from the highest Z-score bin that contained the motif.

[3] = system: DNA cognate sites (sequences used in the footprints); details: footprinting, cited from earlier work
[4] = target: T1, Extradenticle (Exd) homeodomain (Drosophila melanogaster, UniProt P40427 SEQ:1-63); assay: EMSA; 100 nM Exd; band completely shifted; polyamide has no effect; K-glutamate 150 mM, HEPES pH 7.5; details: tags: none stated for EMSA; label: 32P; hairpin design; likely G-quadruplex
T1 sequence: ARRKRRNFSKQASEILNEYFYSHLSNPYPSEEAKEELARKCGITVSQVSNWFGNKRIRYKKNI
Description: Electrophoretic Mobility Shift Assays: 40mer DNA sequences labeled with ³²P (as per standard methods) were used in all reactions. Reactions were performed in a buffer composed of 150 mM Potassium Glutamate, 50 mM HEPES pH=7.5, 2 mM DTT, 100 ng/μL of BSA, 10% DMSO, and 10% glycerol. For the binding tests, polyamide-peptide conjugates (50 nM final concentration) and ³²P-DNA were incubated together for 30 minutes at 4° C. Exd was then added to bring the reaction volume to 20 μL. Exd final concentrations were 0.033, 0.1, 0.33, 1, 3.3, 10, 33, and 100 nM. These reactions were incubated at 4° C. for 1 hour and then 15 μL was loaded onto a pre-run 10% acrylamide/3% glycerol gel (1×TBE).
(§3) Hairpin Induction for Electrophoretic Mobility Shift Assay (Supplementary Figure S4B). Hairpin DNA was formed by heating synthesized ssDNA to 95° C. for 5 minutes and then rapidly cooling them on ice. The 34mer DNA […] were then labeled with ³²P (as per standard methods). For the hairpin electrophoretic mobility shift assays the concentrations of polyamide used were 50 nM, and Exd was present at a concentration of 100 nM. The reactions were performed in the above buffer and the gels were then run as before with the following exceptions: the gels were 8% acrylamide/3% glycerol gel with 0.5×TBE.

G-rich hairpin DNA [5] = assay: Hairpin electrophoretic mobility shift assay with Exd and polyamide; format: binding; details: upon addition of Exd (100 nM)
Description: as §1
as §3, with “^32P” for “³²P”

O=C1c2ccc3c4ccc5c6c(ccc(c7ccc(c2c37)C(=O)N1CCN1CCCCC1)c64)C(=O)N(CCN1CCCCC1)C5=O [PIPER, N,N-Bis[2-(1-piperidino)ethyl]-3,4,9,10-perylenetetracarboxylic diimide]
Aggregation of DNA (immobility from the well) (Consensus hairpin DNA): does not
Aggregation of DNA (immobility from the well) (G-rich hairpin DNA [1]): significant aggregation

ImImPy*Py-γ-ImPyPyPy-β-Dp [PA2]
Motifs emerging from polyamide-Exd CSI data (DNA hairpin target array): three clear motifs

ImImPy*Py-γ-ImPyPyPy-β-Dp [PA3]
Motifs emerging from polyamide-Exd CSI data (DNA hairpin target array): only two of those motifs

ImPy*PyPy-γ-ImPyPyPy-β-Dp [PA1]
Intensity ([2]; Data Point A, average of all features containing ATGTACAT): 19715
Intensity ([2]; Data Point B, average of all features containing AGTACT): 10952
Intensity ([2]; Data Point C, average of all features containing ATCTACAT): 3035.5
Intensity ([2]; Data Point D, average of all features containing ATATACAT): 2073.25
Intensity ([2]; Data Point E, average of all features containing ATGTATTT): 1426.5
Intensity relative to other permutations of the consensus sequence ([2]; all sequences containing 5′-WWGATCWW-3′): significantly lower intensities
Effect of substitution on binding ([2]; double substitution at positions 3 and 6 to W (A/T stretch)): retains its ability to bind PA1
Effect of substitution on binding ([2]; replacing one of the S residues at positions 6 (or 3′) with a W): significantly attenuates, but does not abolish binding
Effect of substitution on binding ([2]; substituting an S (G or C) at position 8): only subtly decreases binding
Effect of substitution on binding ([2]; substituting any other position that prefers a W with an S residue): nearly abolishes binding
Ka ([3]; Data Point A, sequence ATGTACAT): 70 10^9 M^−1
Ka ([3]; Data Point B, sequence AGTACT): 37 10^9 M^−1
Ka ([3]; Data Point C, sequence ATCTACAT): 3.2 10^9 M^−1
Ka ([3]; Data Point D, sequence ATATACAT): 2.8 10^9 M^−1
Ka ([3]; Data Point E, sequence ATGTATTT): 0.41 10^9 M^−1

CGCCCCCCCCCCGCTCCTGCGGGGGGGGGGCGTTTT (structured_DNA) [G-rich hairpin DNA]
binding result [4]: binds

B1: Exd: transcription factor essential in Drosophila development; used Cy3-labeled (Exd R2C, residues 1-88) on the array (protein, UniProt P40427 1-88, looked up, fragment)
chain: MEDPNRMLAHTGGMMAPQGYGLSGQDDGQNAGSENEVRKQKDIGEILQQIMSISEQSLDEAQARKHTLNCHRMKPALFSVLCEIKEKT
modifications: Cy3 label
notes: transcription factor essential in Drosophila development; used Cy3-labeled (Exd R2C, residues 1-88) on the array
Exd binding motif (DNA hairpin target array; Cy3-labeled Exd with PA2 or PA3): 5′-NGAN-3′
Sequence preference (DNA hairpin target array; Exd alone): unexpected preference for stretches of consecutive G-residues
Sequence-specific binding (DNA hairpin target array; Exd alone, 0.2-200 nM): little sequence-specific binding
Band shift of G-rich DNA (G-rich hairpin DNA [5]): completely shifted
